“And” between values parts separate entries of the source, which are not always exact repeats. Equal entries are not always repeated. Where two headings read alike, the source gives them in different places.
Key:
[1] = test system: human pulmonary microvascular endothelial cells (HPMVEC); assay: Human pulmonary microvascular EC proliferation assay (VEGF-induced); type: cell-based
Description: Human pulmonary microvascular EC proliferation assay—For measuring cell growth, HPMVEC [5×10^3 cells/well] pretreated with various agents were incubated with 0.2 ml of serum-free media containing 100 nM VEGF for 24 h at 37° C. in 5% CO2195% air in 96-well culture plates. The in vitro cell proliferation assay was analyzed by measuring increases in cell number using the CellTiter96™ MTS assay (Promega, San Luis Obispo, Calif.) and read at 492 nm. Each assay was set up in triplicate, repeated at least five times and analyzed statistically by Student's t test (with statistical significance set at P<0.05).
(§1) Experiments were performed in triplicate. Error bars=standard deviation.
as §1

[2] = test system: human pulmonary microvascular endothelial cells (HPMVEC); assay: Human pulmonary microvascular EC migration assay (VEGF-induced, transwell); type: cell-based; conditions: VEGF 100 nM
Description: Human pulmonary microvascular EC migration assay—Twenty-four transwell units with […] pore size were used for monitoring in vitro cell migration. HPMVEC (˜1×10^4 cells/well) were plated with various treatments to the upper chamber and VEGF (100 nM) was added to the lower chamber. Cells were allowed to migrate for 18 hours. Cells from the upper and lower chamber were quantitated using the CellTiter96™ MTS assay (Promega, San Luis Obispo, Calif.) and read at 492 nm. Percent migration was defined as the # of cells in the lower chamber divided by the number of cells in both the upper and lower chamber. Each assay was set up in triplicate, repeated at least five times and analyzed statistically by Student's t test (with statistical significance set at P<0.05).
Synergistic effects of MNTX with Temsirolimus on inhibition of VEGF—induced human EC proliferation and migration. Inhibition curves of human EC assayed for VEGF (100 nM)-induced proliferation and migration (24 hours) in the presence or absence of 0.1, 1.0, 10, 100 or 500 nM MNTX, Temsirolimus or 10 nM MNTX+Temsirolimus. MNTX inhibited EC VEGF-induced proliferation with an IC50 of ˜100 nM. Adding 10 nM MNTX to EC shifted the IC50 of Temsirolimus inhibition of VEGF-induced proliferation from ˜10 nM to ˜1 nM. Experiments were performed in triplicate. Error bars=standard deviation. […]

[3] = test system: Akt; assay: VEGF-induced Akt activation (phosphorylation) immunoblot in human pulmonary microvascular endothelial cells; type: cell-based; conditions: for VEGF-induced phosphorylation (activation) of Akt at serine 473 and threonine 308: human EC, VEGF 100 nM 5 minutes, 1 hour pre-treatment with 100 nM compound
Description: To assess the effects of methylnaltrexone (MNTX) on the VEGF-induced activation of the serine/threonine kinase Akt, a well-characterized endothelial cell line, human pulmonary microvascular endothelial cells (HPMVEC), was used. HPMVEC were serum starved for one hour and either untreated (control) or treated with VEGF (100 nM, 5 minutes) with or without pre-treatment (1 hour) with 100 nM MNTX, 100 ng/ml bevacizumab, 100 μM 5-FU, 100 nM MNTX+100 ng/ml bevacizumab or 100 nM MNTX+100 μM 5-FU. Cell lysates were obtained, run on SDS-PAGE and immunoblotted with anti-pSer^473Akt, anti-pThr^308Akt, anti-Akt or anti-actin antibody.
Cell Culture and Reagents—Human pulmonary microvascular EC were obtained from Cambrex (Walkersville, Md.) and cultured as previously described (Singleton et al. (2006), Microvasc. Res. 72(1-2):3-11; Singleton et al. (2007), Am. J. Respir. Cell Mol. Biol. 37(2):222-231) in EBM-2 complete medium (Cambrex) at 37° C. in a humidified atmosphere of 5% CO2, 95% air, with passages 6-10 used for experimentation. Unless otherwise specified, reagents were obtained from Sigma (St. Louis, Mo.). Vascular endothelial growth factor (VEGF) was purchased from R&D Systems (Minneapolis, Minn.). Methylnaltrexone bromide (MNTX) was purchased from Mallinckrodt Specialty Chemicals (Phillipsburg, N.J.). Bevacizumab was purchased from Genentech (South San Francisco, Calif.). 5-fluorouracil (5-FU) was purchased from Abraxis Pharmaceutical Products (Schaumburg, Ill.). Naltrexone and rapamycin were purchased from Sigma (St. Louis, Mo.). Reagents for SDS-PAGE electrophoresis were purchased from Bio-Rad (Richmond, Calif.) and Immobilon-P transfer membrane was purchased from Millipore (Millipore Corp., Bedford, Mass.). Rabbit anti-pSer^473Akt, rabbit anti-pThr^308Akt and rabbit anti-Akt antibodies were purchased from Cell Signaling Technologies (Danvers, Mass.). Mouse anti-β-actin antibody was purchased from Sigma (St. Louis, Mo.). Secondary horseradish peroxidase (HRP)-labeled antibodies were purchased from Amersham Biosciences (Piscataway, N.J.). […]

[4] = test system: T1, mTOR Complex 1 (Homo sapiens); assay: VEGF-induced mTOR complex formation, anti-Raptor immunoprecipitation and immunoblot; type: cell-based; conditions: human EC, VEGF 100 nM 5 minutes, 1 hour pretreatment with 100 nM compound
T1 construct: EC lysates were obtained and immunoprecipitated with anti-Raptor (mTOR Complex 1 component); endogenous in cells; host or cells: human endothelial cells (EC)
Description: (§2) Analysis of mTOR Complex Formation and Regulation of Akt Phosphorylation—Human EC were serum starved for one hour and either untreated (control) or treated with VEGF (100 nM, 5 minutes) with or without pretreatment (1 hour) with 100 nM MNTX or 100 nM Temsirolimus. EC lysates were obtained and immunoprecipitated with anti-Raptor (mTOR Complex 1 component) or anti-Rictor (mTOR complex 2 component) antibody. The immunoprecipitated material was run on SDS-PAGE and immunoblotted with either anti-mTOR, anti-FKBP12, anti-Raptor, anti-SIN1 or anti-Rictor antibody. To investigate the regulation of Akt phosphorylation, human EC were serum starved for one hour and either untreated (control) or treated with VEGF (100 nM, 5 minutes) with or without pretreatment with the PI3 kinase inhibitor, LY294002 (10 μM, 1 hour), Src siRNA or Rictor (mTOR complex 2 component) siRNA. EC lysates were obtained, run on SDS-PAGE and immunoblotted with anti-pSer^473Akt, anti-pThr^308Akt or anti-Akt antibody.

[5] = test system: mTOR Complex 2; assay: VEGF-induced mTOR complex formation, anti-Rictor immunoprecipitation and immunoblot; type: cell-based; conditions: human EC, VEGF 100 nM 5 minutes, 1 hour pretreatment with 100 nM compound
Description: as §2

[6] = white crystalline powder, typically the bromide salt, as commercially provided; cited from earlier work

In the case of `CN(N=O)c1ccc(O)c(O)c1` [3,4-dephostatin], the “effect of PTP inhibitor on VEGF-induced EC proliferation” value ([1]; VEGF 100 nM, 24 hours, with Temsirolimus with or without 10 nM MNTX) is reported as “inhibited” and the “effect of PTP inhibitor on VEGF-induced EC migration” value ([2]; 24 hours, with Temsirolimus with or without 10 nM MNTX) is reported as “inhibited”.

For `C[N@+]1(CC2CC2)CC[C@]23c4c5ccc(O)c4O[C@H]2C(=O)CC[C@@]3(O)[C@H]1C5` [methylnaltrexone, N-methylnaltrexone], the “inhibition of VEGF-induced pSer473Akt and pThr308Akt immunoreactivity, dose relation” value ([3]; 1.0, 10, 100, 1000 nM MNTX) was “dose-dependent”, the “VEGF-induced phosphorylation (activation) of Akt at serine 473 and threonine 308” value [3] was “abrogated” and the IC50 ([1]; Homo sapiens, Endothelial cell, 24 h, read-out: IC50 of inhibition of VEGF-induced EC proliferation) was roughly 100 nM. For the same compound, the “VEGF-induced formation of mTOR Complex I” value [4] was “inhibits”, the “VEGF-induced formation of mTOR Complex II” value [5] was “inhibits” and the solubility in water [6] was “freely soluble in water”.

For `CO[C@H]1C[C@@H]2CC[C@@H](C)[C@@](O)(O2)C(=O)C(=O)N2CCCC[C@H]2C(=O)O[C@H]([C@H](C)C[C@@H]2CC[C@@H](OC(=O)C(C)(CO)CO)[C@H](OC)C2)CC(=O)[C@H](C)/C=C(\C)[C@@H](O)[C@@H](OC)C(=O)[C@H](C)C[C@H](C)/C=C/C=C/C=C/1C` [temsirolimus], the “VEGF-induced phosphorylation (activation) of Akt at serine 473 and threonine 308” value [3] was “did not inhibit”, the IC50 ([1]; VEGF 100 nM, 24 hours, compound alone, read-out: IC50 of inhibition of VEGF-induced EC proliferation) was ~10 nM and 10 nM and the IC50 ([1]; VEGF 100 nM, 24 hours, plus 10 nM MNTX, read-out: IC50 of inhibition of VEGF-induced EC proliferation with 10 nM MNTX added) was roughly 1 nM. For the same compound, the IC50 ([1]; VEGF 100 nM, 24 hours, presence of 3,4-Dephostatin, read-out: IC50 of inhibition of VEGF-induced EC proliferation in the presence of 3,4-Dephostatin) was 15 nM, the “VEGF-induced formation of mTOR Complex I” value [4] was “mTOR complex II only” and the “VEGF-induced formation of mTOR Complex II” value [5] was “inhibits”.

In the case of rapamycin, the “inhibition of VEGF-induced endothelial cell proliferation” value ([1]; VEGF 100 nM, 0.01, 0.1, 1.0 or 10 nM rapamycin) is reported as “dose-dependent inhibition” and the “inhibition of VEGF-induced endothelial cell migration” value ([2]; 0.01, 0.1, 1.0 or 10 nM rapamycin) is reported as “dose-dependent inhibition”.
